From patent publication US8710246B2, “Substituted thiophene pentamers” (Biochromix Newco AB, priority 2008, dated 2014)
Entries after “also recorded” stand apart in the source; their conditions may differ.

Columns and labels:
[1] = target: T1, Aβ peptide 1-42 (Homo sapiens, UniProt P05067); assay: In vitro fibrillation of Aβ peptide 1-42 followed by TEM; format: biochemical; details: for fibrillation morphology by TEM: 20 μM Aβ 1-42, 37° C.
T1 construct: Aβ peptide 1-42 was dissolved in hexafluoroisopropanol
T1 sequence (P05067 672-713 limits assumed): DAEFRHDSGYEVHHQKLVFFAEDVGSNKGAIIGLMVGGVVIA
Experimental: Aβ peptide 1-42 was dissolved in hexafluoroisopropanol to a concentration of 1 mg/mL and further diluted to 20 μM in Tris-HCl 5 mM, 75 mM NaCl. The inventive compounds F and G were added in concentrations from 10 to 100 μM and the samples, including references without the inventive compounds, were incubated at 37° C. to initiate fibrillation. After Oh, 20 h and 66 h aliquots were withdrawn, deposited on formvar-carbon coated TEM grids and negatively stained using uranylacetate. A Phillips CM200 run at 200 kV was used to study the progress of fibrillation in the different samples. […] (at Oh). […] These aggregates were covering most of the TEM grid and no smaller fibril or oligomer like structures could be seen. After 66 h of incubation no major change in morphology compared to the 20 h samples could be seen, sheets with separate visible fibrils were found at high density on the grid, of a typical morphology illustrated in FIG. 3.

[2] = test system: primary chicken neurons; assay: Aβ1-42 induced lesions in primary chicken neurons, MTT viability assay; format: cell-based
Experimental: T:I 1: p-HTAA, Mw=529 g/mol, diluted in vehicle from stock solution in PBS+1.33% DMSO (10 mg/ml).
T:I 2: POWT-13, Mw=2782 g/mol, diluted in vehicle from stock solution in deionized water (40 mg/ml).
Cell source: Telencephalon neurons from 8-day-old chicken embryos (Lohman Brown hybrid)
Nutrition medium: DMEM with 4.5 g glucose/1, 5% Nu Serum, 0.01% gentamycin, 2 mM L-glutamine
Group size: n=6 for each T.I. and R.I. concentration per experiment
Lesion: 10 μM Aβ1-42 (pre-aggregated for 48 h) at DIV8 for 48 h
Evaluation of the effects: MTT on DIV 10
One-day-old fertilized eggs will be stored under appropriate conditions until start of breeding. On embryonic day 0 eggs will be transferred to the breeding incubator and under turning kept at 37.8° C. and 55% humidity until embryonic day eight. […]
Viability of cultures will be determined with the MTT assay using a plate-reader (570 nm) as described e.g. in SOP MET004. […] Since this reaction is catalysed in living cells only this assay can be used for the quantification of cell viability. […] To estimate optical density, a plate-reader (Anthos HT II or pquant) is used at wavelength 570 nm. […]
After 48 hours of incubation of T.I. and Aβ1-42 on cells (DIV10), viability of neurons will be analysed by the MTT assay.

[3] = test system: Aβ deposits; assay: Long term in vivo effects on amyloid plaques in transgenic mice, cranial window, multiphoton spectroscopy; details: tail vein injection, 10 mg/kg
Source text: This long lasting binding to the plaques is advantageous for a long term therapeutic effect of the inventive compounds.

effect on the fibrillation of Aβ peptide 1-42 ([1]; overall conclusion, 20 h and 66 h): major effect | crossing of the blood brain barrier after intravenous injection ([3]; transgenic mice with AD-like pathology): readily cross the blood brain barrier
SMILES: O=C(O)Cc1cc(-c2cccs2)sc1-c1ccc(-c2sc(-c3cccs3)cc2CC(=O)O)s1 [Compound G]
fibrillation morphology by TEM ([1]; 10 μM compound, 20 h): no dense aggregates resembling those in the reference sample; also recorded: low density of oligomer like structures | fibrillation morphology by TEM ([1]; 100 μM compound, 20 h): no dense aggregates resembling those in the reference sample; also recorded: low density of short branched fibrils with a very low contrast; also recorded: Short branched fibrils | fibrillation morphology by TEM ([1]; 100 μM compound, 66 h): very few separate short proto-fibrils; also recorded: Short proto-fibrils | viability of neurons (MTT) ([2]; test item added to Aβ1-42 during aggregation, then on cells 48 h, FIG. 12): better viability compared to 10 μM Aβ1-42 alone | viability of neurons (MTT) ([2]; test item and pre-aggregated 10 μM Aβ1-42 applied on neurons simultaneously, 48 h, FIG. 11): better viability compared to 10 μM Aβ1-42 alone | binding to Aβ deposits in living mouse brain one week after injection ([3]; one week after injection): binding of the inventive compounds to AP deposits could still be observed; also recorded: bound to Aβ deposits in living mouse brain one week after injection
